Measurements published in patent US7312239B2, “Medicament for prevention and/or therapy of arterial wall disorder” (Mitsubishi Pharma Corporation, priority 2002, dated 2007).

What was measured:
[1] = test system: abdominal aorta of rabbits injured by use of a balloon; assay: Balloon injury of abdominal aorta in cholesterol-fed rabbits, ratio of new intima to new media (I/M); assay type: in vivo, Japanese white rabbits; conditions: rabbits on 1% cholesterol food, 10 mg/kg intravenous injection twice per day from the day before injury, 10th week, p=0.018 vs control 0.475±0.136
Description: (§1) Japanese white rabbits were divided into two groups, an edaravone group (n=6) and a control group (n=6), and they were fed with 1% cholesterol food for 10 weeks. On the 8th week, the rabbits of both groups were injured such that their abdominal aorta was damaged by use of a balloon. For the edaravone group, edaravone was administered every day (10 mg/kg, intravenous injection twice per day) from the day before the balloon injury. For the control group, a physiological salt solution was administered. On the 10th week, the rabbits were sacrificed, and their abdominal aorta was excised. The ratio of a new intima to a new media (the ratio of the intimal area of a blood vessel section to the medial area thereof; I/M) was measured as follows. First, total 5 portions were cut out of the abdominal aorta into round slices each having a width of 5 mm, and HE-stained samples were prepared therefrom. A new intimal area and a new medial area were analyzed with computer software, and the mean value of the 5 portions was obtained, followed by calculation of I/M.

[2] = test system: right common carotid artery injured by abrasion with a 2F balloon; assay: Balloon injury of carotid artery in OLETF rats with type II diabetes, I/M; assay type: in vivo; conditions: male OLETF rats with type II diabetes, administered from 3 days before to 14th day after operation; p<0.01 vs vehicle 1.12±0.15
Description: 11′-week-old female SD rats were divided into two groups, an ovary elimination group (OVX) and an ovary non-elimination group (INT). To the OVX group, edaravone (Ed) (30 mg/kg/day) (n=8) or vehicle (V) (n=7) was orally administered, and to the INT group (n=4), vehicle (V) was administered. The vascular endothelium of the right common carotid artery was injured by abrasion with a 2F balloon. The above drugs were administered for 3 days immediately after the above operation. On the 14th day, the blood vessel was excised, and the ratio of a new intima to a new media (I/M) was calculated. 30-week-old male OLETF rats with type II diabetes were divided into two groups, an edaravone (Ed) administration group (n=4) and a vehicle (V) administration group (n=4). The above-described blood vessel injury was carried out on them. The above drugs were continuously administered from 3 days before the above operation to the 14th day after the above operation. Thereafter, the ratio of a new intima to a new media (I/M) was calculated.

[3] = Total cholesterol, triglyceride and lipid peroxide in serum of balloon-injured cholesterol-fed rabbits; assay type: in vivo, Japanese white rabbits; conditions: 10 mg/kg i.v. twice per day, before cholesterol food, at balloon injury, at sacrifice, vs control group
Description: as §1
Moreover, total cholesterol (TC), triglyceride (TG) and lipid peroxide (LPO) in serum were measured, before the rabbits were fed with cholesterol food, when they were injured by use of a balloon, and when they were sacrificed.

[4] = test system: right common carotid artery injured by abrasion with a 2F balloon; assay: Balloon injury of right common carotid artery in ovary-eliminated rats, I/M; assay type: in vivo; conditions: ovary elimination (OVX) female SD rats, 30 mg/kg/day oral for 3 days after operation, 14th day; p<0.01 vs OVX+V 1.36±0.12
Description: 11′-week-old female SD rats were divided into two groups, an ovary elimination group (OVX) and an ovary non-elimination group (INT). To the OVX group, edaravone (Ed) (30 mg/kg/day) (n=8) or vehicle (V) (n=7) was orally administered, and to the INT group (n=4), vehicle (V) was administered. The vascular endothelium of the right common carotid artery was injured by abrasion with a 2F balloon. The above drugs were administered for 3 days immediately after the above operation. On the 14th day, the blood vessel was excised, and the ratio of a new intima to a new media (I/M) was calculated.

Structure (SMILES): CC1=NN(c2ccccc2)C(=O)C1 [edaravone, 3-methyl-1-phenyl-2-pyrazolin-5-one]
- ratio of a new intima to a new media (I/M) [1]: 0.344±0.055
- ratio of a new intima to a new media (I/M) [2]: 0.55±0.02
- lipid peroxide (LPO) in serum [3]: not significantly different
- total cholesterol (TC) in serum [3]: not significantly different
- triglyceride (TG) in serum [3]: not significantly different
- ratio of a new intima to a new media (I/M) [4]: 0.82±0.09
